Legend:
[1] = tested on: ECC1; experiment: AlamarBlue cell viability assay, ECC1; type: cell-based; settings: Homo sapiens, ECC-1, Endometrial
Description: (§1) The human immortalized mammary epithelial cell lines, MCF10A, and MCF12A; and immortalized hepatocellular epithelial cell line, LO2 were obtained from the American Type Culture Collection (ATCC, Rockville, Md.) and were cultured as per ATCC propagation instructions. MC cell lines, MCF7, T47D, BT474, BT20, MDA-MB-361, MDA-MB-436, MDA-MB-468, and MDA-MB-231; endometrial carcinoma cell lines, Ishikawa, ECC1, RL95-2 and AN3; hepatocellular carcinoma cell lines, Hep3B, H2P, and H2M; colon carcinoma cell lines, DLD-1, and Caco-2; and prostate carcinoma cell lines, PC3, LNCaP, and DU145 were obtained from the American Type Culture Collection (ATCC, Rockville, Md.). Pancreatic carcinoma cell lines, AsPC-1 and BxPC-3; Lung carcinoma cell lines, HCC-827, NCI-H1975, HCC-4006, PC-14, and NCI-H1299; and Thyroid carcinoma cell lines HTH83, CAL62, T238, and OGK-M were obtained from Prof. H. Phillip Koeffler's laboratory at The Cancer Science Institute of Singapore, National University of Singapore (NUS). Gastric carcinoma cell lines, AGS, MKN-28, MKN-45, and A2-528 were obtained from Prof. […]
(§2) In table 9 IC50 values of compound 43 compound library in several cancer cell lines are tabulated, using an AlamarBlue® cell viability assay as previously described in Pandey V et al., Breast Cancer Res. 2014; 16(5):429. Statistical analysis was assessed by using GraphPad Prism5. […]

[2] = tested on: RL95-2; experiment: AlamarBlue cell viability assay, RL95-2; type: cell-based; settings: Homo sapiens, Endometrial
Description: as §1, §2

[3] = tested on: HCC4006; experiment: AlamarBlue cell viability assay, HCC4006; type: cell-based; settings: Homo sapiens, Lung
Description: as §1, §2

[4] = tested on: H1299; experiment: AlamarBlue cell viability assay, H1299; type: cell-based; settings: Homo sapiens, NCI-H1299, Lung
Description: as §1, §2

[5] = tested on: DU145; experiment: AlamarBlue cell viability assay, DU145; type: cell-based; settings: Homo sapiens, DU-145, Prostate
Description: as §1, §2

[6] = tested on: BxPC-3; experiment: AlamarBlue cell viability assay, BxPC-3; type: cell-based; settings: Homo sapiens, Pancreatic
Description: as §1, §2

[7] = tested on: HTH83; experiment: AlamarBlue cell viability assay, HTH83; type: cell-based; settings: Homo sapiens, Thyroid
Description: as §1, §2

[8] = tested on: CAL62; experiment: AlamarBlue cell viability assay, CAL62; type: cell-based; settings: Homo sapiens, CAL-62, Thyroid
Description: as §1, §2

[9] = tested on: MKN-45; experiment: AlamarBlue cell viability assay, MKN-45; type: cell-based; settings: Homo sapiens, Gastric
Description: as §1, §2

[10] = tested on: A2-528; experiment: AlamarBlue cell viability assay, A2-528; type: cell-based; settings: Homo sapiens, Gastric
Description: as §1, §2

[11] = tested on: BT474; experiment: qPCR analysis of mRNA levels of genes associated with oncogenic progression, BT474; type: cell-based, human; settings: BT474, 10 μM
Description: Total RNA was isolated from cells using TRIzol Plus RNA Purification system as previously described in Pandey V et al., Endocrinology. 2010; 151(3):909-920. qPCR assays were performed as previously described in Pandey V et al., Endocrinology. 2010; 151(3):909-920; and Pandey V et al., Endocrinology. 2008; 149(8):3909-3919. Gene expression analysis was performed as previously described in Pandey V et al., Endocrinology. 2010; 151(3):909-920; and Pandey V et al., Endocrinology. 2008; 149(8):3909-3919.

[12] = tested on: MCF7 cells with forced expression of TFF3; experiment: MCF7 cells with forced expression of TFF3: western blot, cell viability, caspase 3/7 (FIG. 5); type: cell-based, human; settings: MCF7 cells with forced expression of TFF3, 5 μM
Description: (A) Western blot analysis was used to assess the levels of pSTAT3, STAT3, BCL2, and CCND1 protein in MCF7 cells with forced expression of TFF3 after treatment with compound 43 (5 μM) and Stattic (2 μM) was used to treat cells. Depletion of STAT3 expression was achieved using transient-transfection of small interfering (si)-RNA (Invitrogen, Singapore) directed to STAT3 transcript as previously described in Pandey V et al., Breast Cancer Res. 2014; 16(5):429. Anti-TFF3 polyclonal antibody was used as previously described (ibid). Soluble whole cell extracts were run on a SDS-PAGE and immunoblotted as previously described (ibid). β-ACTIN was used as input control for cell lysate. The sizes of detected protein bands in kDa are shown on the right side (B) Cell viability and (C) caspase 3/7 activities in MCF7 cells with forced expression of TFF3 after treatment with compound 43 (5 μM) and Stattic (2 μM) was used to treat cells. […] Evaluated using ApoTox-Glo™ Triplex Assay Kit, Promega (Singapore) according to manufacturer's instructions. Cell viability fluorescence is measured at 400Ex/505Em, while apoptosis (caspase 3/7 activities) is determined with the luminescence measurement. […] Statistical significance was assessed by using an unpaired two-tailed Student's t test (P<0.05 was considered as significant) using GraphPad Prism5. […]

Structure (SMILES): Cc1cc(-c2ccc(C3C(C#N)=C(N)Oc4c3c(=O)oc3ccccc43)cc2)cnc1F (stereo not drawn) [Compound 43, 2-Amino-4-(4-(6-fluoro-5-methylpyridin-3-yl)phenyl)-5-oxo-4H,5H-pyrano[3,2-c]chromene-3-carbonitrile]
- IC50 [1]: 4.64 µM
- IC50 [2]: 90.5 µM
- IC50 [3]: 3.92 µM
- IC50 [4]: 18.6 µM
- IC50 [5]: 1.91 µM
- IC50 [6]: 2.56 µM
- IC50 [7]: 0.56 µM
- IC50 [8]: 33.1 µM
- IC50 [9]: 6.81 µM
- IC50 [10]: 34.1 µM
- APAF1 mRNA, Fold change relative to vehicle control [11]: 1.27 fold
- ATM mRNA, Fold change relative to vehicle control [11]: 0.80 fold
- BAD mRNA, Fold change relative to vehicle control [11]: 0.04 fold
- BAK1 mRNA, Fold change relative to vehicle control [11]: 1.92 fold
- BAX mRNA, Fold change relative to vehicle control [11]: 21.55 fold
- BCL2L1 mRNA, Fold change relative to vehicle control [11]: 0.05 fold
- BCL2 mRNA, Fold change relative to vehicle control [11]: 0.02 fold
- BCLAF1 mRNA, Fold change relative to vehicle control [11]: 1.26 fold
- BRCA1 mRNA, Fold change relative to vehicle control [11]: 0.47 fold
- CASP7 mRNA, Fold change relative to vehicle control [11]: 103.76 fold
- CCND1 mRNA, Fold change relative to vehicle control [11]: 0.04 fold
- CDC25A mRNA, Fold change relative to vehicle control [11]: 0.15 fold
- CDK2 mRNA, Fold change relative to vehicle control [11]: 1.05 fold
- CDK4 mRNA, Fold change relative to vehicle control [11]: 0.66 fold
- CDKN1A mRNA, Fold change relative to vehicle control [11]: 27.15 fold
- CDKN1B mRNA, Fold change relative to vehicle control [11]: 0.14 fold
- CDKN2A mRNA, Fold change relative to vehicle control [11]: 1.43 fold
- CFLAR mRNA, Fold change relative to vehicle control [11]: 9.08 fold
- CHEK2 mRNA, Fold change relative to vehicle control [11]: 0.85 fold
- Cyclin E1 mRNA, Fold change relative to vehicle control [11]: 0.08 fold
- E2F1 mRNA, Fold change relative to vehicle control [11]: 0.51 fold
- GZMA mRNA, Fold change relative to vehicle control [11]: 3.66 fold
- HTATIP2 mRNA, Fold change relative to vehicle control [11]: 6.64 fold
- MDM2 mRNA, Fold change relative to vehicle control [11]: 0.99 fold
- RB1 mRNA, Fold change relative to vehicle control [11]: 0.86 fold
- S100A4 mRNA, Fold change relative to vehicle control [11]: 4.80 fold
- TERT mRNA, Fold change relative to vehicle control [11]: 0.08 fold
- TNFRSF1A mRNA, Fold change relative to vehicle control [11]: 35.64 fold
- TNFRSF10B mRNA, Fold change relative to vehicle control [11]: 9.22 fold
- TNFRSF25 mRNA, Fold change relative to vehicle control [11]: 7.11 fold
- TP53 mRNA, Fold change relative to vehicle control [11]: 459.09 fold
- TFF3-stimulated effects [12]: reverted
